Results published in patent US8722043B2, “Induction of p53 expression by neutralization of neuropilin-2 for the treatment of cancers” (Diaclone, priority 2008, dated 2014).

Key:
Format in all cases: cell-based, human
p53 protein = assay: p53 expression in Colo320 cells expressing siRNA-NRP-2 (flow cytometry, Western blotting); conditions: Colo320^siRNA-NRP-2 versus Colo320^siRNA-ctrl
Text: FIG. 7 represents the results obtained by flow cytometry for the HT29-ctrl (panel A), HT29-NRP-2 (panel B), Colo320^siRNA-ctrl (panel C) and Colo320^siRNA-NRP-2 (panel D) cells labelled with an anti-p53 antibody. The curves in black lines represent the results of the labelling with a control antibody, and the curves in grey lines represent the results of the labelling with the anti-p53 antibody. The number of events (the number of cells) is indicated on the y-axis, the fluorescence intensity (corresponding to the labelling of the cells with the anti-p53 antibody) is represented on the x-axis.
The protein extracts of the HT29-ctrl, HT29-NRP-2, Colo320^siRNA-ctrl and Colo320^siRNA-NRP-2 lines were also analysed by Western blotting using an anti-p53 antibody. After lysis of the cell lines, migration of the protein pellets obtained on a 10% polyacrylamide gel (10 μg of protein per well, standardized relative to the immunoblotting of actin), and then transfer onto a PVDF membrane, the PVDF membrane was incubated overnight with the p53 primary antibody (BD Biosciences, mouse anti-human p53) diluted to 1/500. The membranes, after washing in TBS/0.1% Tween20, were incubated for 1 hour with an anti-mouse HRP secondary antibody diluted to 1/12 500. The results are represented in FIG. 8.

Colo320 cells = assay: MTT proliferation assay in the presence of siRNA-NRP-2; conditions: Colo320^siRNA-NRP-2 versus Colo320^siRNA-ctrl; 24, 48 and 72 hours
Protocol: The MTT proliferation assay is based on the reduction of 3-(4,5-dimethylthiazol-2-yl)-2,5-diphenyltetrazolium bromide), by the mitochondrial succinate dehydrogenase of active live cells, to give formazan. The coloration intensity (OD) induced by this reaction is proportional to the number of live cells present during the assay, and to the metabolic activity thereof.
4000 HT29ctrl, HT29-NRP-2, Colo320^siRNA-ctrl or Colo320^siRNA-NRP-2 cells were seeded into a 96-well Maxisorp plate, in 100 μl of DMEM medium containing 10% of inactivated FCS. The assay was carried out in triplicate. At 24, 48 and 72 hours, respectively, 10 μl of MTT at 5 mg/ml were added to each well. After 2 hours of incubation at 37° C., 5% CO2, 200 μl of DMSO were added to each well after shaking, and the OD was read at 570 nm using a spectrophotometer. The results of these experiments are represented in FIG. 4.
FIGS. 4.A and 4.B are histograms representing the results obtained in the proliferation assay carried out respectively with the HT29ctrl and HT29-NRP-2 cells and with the Colo320^siRNA-ctrl and Colo320^siRNA-NRP-2 cells. The coloration intensity (the optical density “OD”) corresponding to the production of formazan by the cells is indicated on the y-axis, and the times at which the viability tests were carried out are indicated on the x-axis. […]

NRP-2 protein = assay: NRP-2 expression after siRNA transfection (flow cytometry, C9 antibody); conditions: Colo320 cells transfected with pFiv H1/U6puro siRNA-NRP-2, from D7
Protocol: The Colo320 line naturally expressing neuropilin-2 at its membrane surface was transfected with the plasmid pFiv H1/U6puro siRNA-NRP-2 using the Effectene® kit, Qiagen). In parallel, Colo320 cells were transfected with a control siRNA (siRNA-ctrl) provided with the pFiv H1/U6puro SiRNA expression vector kit (System Biosciences). The Colo320^siRNA-NRP-2 and Colo320^siRNA-ctrl transfected cells were then selected at D2 with 2 μg/ml of puromycin. The efficiency of the transfection was evaluated from D7 onwards by labelling with a murine anti-human NRP-2 IgG antibody (Clone C9, Santa Cruz Biotechnology) by flow cytometry: the results obtained are represented in FIG. 3.
For each of the panels of FIG. 3, the number of events (the number of cells) is indicated on the y-axis, the fluorescence intensity (corresponding to the label of the cells with the anti-NRP-2 antibody C9) is represented on the x-axis. The distribution curves in black lines represent the results obtained after labelling with a control antibody, the distribution curves in grey lines represent the results obtained after labelling with the C9 antibody.

## siRNA-NRP-2: double-stranded siRNA directed against the NRP-2 transcripts, sense SEQ ID No. 31, antisense SEQ ID No. 32, expressed from plasmid (sense GGCUGGAAGUCAGCACUAAUUU; antisense AUUAGUGCUGACUUCCAGCCUU)
p53 protein
  p53 expression (Western blotting): strongly expressed
  p53 expression (flow cytometry): restoration of p53 expression
Colo320 cells
  proliferation and survival (OD at 570 nm): OD decreases
NRP-2 protein
  expression of the NRP-2 protein: efficiently inhibited
